In PubChem BioAssay AID312 (DTP/NCI, 2004):
“And” between values parts separate entries of the source, which are not always exact repeats. Equal values may be shown once. Toxic doses and inconclusive results are not listed.

Tested on: BDF1 mice, C1498 leukemia ip, median survival T/C
Experiment: NCI In Vivo Anticancer Drug Screen. Data for tumor model C1498 Myeloid Leukemia (intraperitoneal) in B6D2F1 (BDF1) mice
Details: endpoint: median survival time, higher = longer survival
Method: The antitumor activity of compounds was measured in mice bearing transplantable tumors. Survival or tumor size were measured and the results are expressed as the measurement made in the treated group (T) divided by the measurement made in the vehicle treated control group (C). The tumor model used in this assay is C1498 Myeloid Leukemia (intraperitoneal) in B6D2F1 (BDF1) mice

[1] = dose: 30.0 mg/kg/injection, schedule: Q01DX010 (ip), vehicle: saline
[2] = dose: 60.0 mg/kg/injection, schedule: Q01DX010 (ip), vehicle: saline
[3] = dose: 6.25 mg/kg/injection, schedule: Q01DX010 (ip), vehicle: saline
[4] = dose: 12.5 mg/kg/injection, schedule: Q01DX010 (ip), vehicle: saline
[5] = dose: 25.0 mg/kg/injection, schedule: Q01DX010 (ip), vehicle: saline
[6] = dose: 50.0 mg/kg/injection, schedule: Q01DX010 (ip), vehicle: saline
[7] = dose: 20.0 mg/kg/injection, schedule: Q01DX010 (ip), vehicle: saline
[8] = dose: 0.5 mg/kg/injection, schedule: Q01DX010 (ip), vehicle: saline
[9] = dose: 5.0 mg/kg/injection, schedule: Q01DX010 (ip), vehicle: saline
[10] = dose: 10.0 mg/kg/injection, schedule: Q01DX010 (ip), vehicle: saline
[11] = dose: 100.0 mg/kg/injection, schedule: Q01DX010 (ip), vehicle: saline

## N#CCSc1ncnc2nc[nH]c12
[1]
  T/C: 105 % of control
[2]
  T/C: 110 % of control

## CS(=O)(=O)OCCCl
dose: 18.8 mg/kg/injection, schedule: Q01DX010 (ip), vehicle: saline
  T/C: 90 % of control
dose: 37.5 mg/kg/injection, schedule: Q01DX010 (ip), vehicle: saline
  T/C: 104 % of control
dose: 75.0 mg/kg/injection, schedule: Q01DX010 (ip), vehicle: saline
  T/C: 90 % of control

## CS(=O)(=O)OCCCCOS(C)(=O)=O
[3]
  T/C: 95 % of control
[4]
  T/C: 95 % of control and 90 % of control
[5]
  T/C: 113 % of control
[6]
  T/C: 109 % of control and 119 % of control

## O=c1[nH]cc(F)c(=O)[nH]1
[7]
  T/C: 159 % of control
dose: 25.0 mg/kg/injection, schedule: Q01DX009 (ip), vehicle: saline
  T/C: 165 % of control
dose: 30.0 mg/kg/injection, schedule: Q01DX009 (ip), vehicle: saline
  T/C: 165 % of control

## C[C@]12C=CC(=O)C=C1CC[C@@H]1[C@@H]2[C@@H](O)C[C@@]2(C)[C@H]1CC[C@]2(O)C(=O)CO
dose: 12.5 mg/kg/injection, schedule: Q01DX010 (sc), vehicle: steriod suspending solution
  T/C: 92 % of control
dose: 25.0 mg/kg/injection, schedule: Q01DX010 (sc), vehicle: steriod suspending solution
  T/C: 88 % of control
dose: 50.0 mg/kg/injection, schedule: Q01DX010 (sc), vehicle: steriod suspending solution
  T/C: 92 % of control
dose: 100.0 mg/kg/injection, schedule: Q01DX010 (sc), vehicle: steriod suspending solution
  T/C: 92 % of control

## Nc1nc(=S)c2ncn(C3OC(CO)C(O)C3O)c2[nH]1 (centres undefined)
[8]
  T/C: 113 % of control
dose: 2.0 mg/kg/injection, schedule: Q01DX010 (ip), vehicle: saline
  T/C: 100 % of control and 111 % of control
dose: 4.0 mg/kg/injection, schedule: Q01DX010 (ip), vehicle: saline
  T/C: 100 % of control and 90 % of control
dose: 8.0 mg/kg/injection, schedule: Q01DX010 (ip), vehicle: saline
  T/C: 107 % of control

## CN(C)[C@@H]1C(=O)C(C(N)=O)=C(O)[C@@]2(O)C(=O)C3=C(O)c4c(O)cccc4C[C@H]3C[C@@H]12
dose: 7.5 mg/kg/injection, schedule: Q01DX010 (ip), vehicle: saline
  T/C: 105 % of control and 116 % of control
dose: 15.0 mg/kg/injection, schedule: Q01DX010 (ip), vehicle: saline
  T/C: 110 % of control and 112 % of control
[1]
  T/C: 95 % of control
[2]
  T/C: 95 % of control

## S=c1nc[nH]c2nc[nH]c12
dose: 1.25 mg/kg/injection, schedule: Q01DX010 (ip), vehicle: other
  T/C: 104 % of control
dose: 2.5 mg/kg/injection, schedule: Q01DX010 (ip), vehicle: other
  T/C: 95 % of control
dose: 5.0 mg/kg/injection, schedule: Q01DX010 (ip), vehicle: other
  T/C: 109 % of control
dose: 10.0 mg/kg/injection, schedule: Q01DX010 (ip), vehicle: other
  T/C: 95 % of control

## CC(=O)NC1=C(N2CC2)C(=O)C(NC(C)=O)=C(N2CC2)C1=O
dose: 0.13 mg/kg/injection, schedule: Q01DX010 (ip), vehicle: saline
  T/C: 108 % of control
dose: 125.0 micrograms/kg/injection, schedule: Q01DX010 (ip), vehicle: saline
  T/C: 104 % of control
dose: 250.0 micrograms/kg/injection, schedule: Q01DX010 (ip), vehicle: saline
  T/C: 109 % of control and 116 % of control

## O=c1c(O)cccc2cc(O)c(O)c(O)c12
[5]
  T/C: 90 % of control
[6]
  T/C: 100 % of control

## NC(Cc1ccc(N(CCCl)CCCl)cc1)C(=O)O (centres undefined)
[9]
  T/C: 173 % of control
[10]
  T/C: 88 % of control

## C1CN1c1nc(N2CC2)nc(N2CC2)n1
dose: 0.25 mg/kg/injection, schedule: Q01DX010 (ip), vehicle: saline
  T/C: 110 % of control
[8]
  T/C: 110 % of control

## CN(C)c1ccc(/C=C/c2ccnc3ccccc23)cc1
[9]
  T/C: 100 % of control
[10]
  T/C: 100 % of control and 104 % of control
[7]
  T/C: 95 % of control and 100 % of control
dose: 40.0 mg/kg/injection, schedule: Q01DX010 (ip), vehicle: saline
  T/C: 95 % of control and 109 % of control

## O=[n+]1c2c(n([O-])c3ccccc31)-c1cccc3cccc-2c13
dose: 3.13 mg/kg/injection, schedule: Q01DX010 (ip), vehicle: saline
  T/C: 90 % of control
[3]
  T/C: 90 % of control
[4]
  T/C: 90 % of control
[5]
  T/C: 90 % of control

## O=NN(CCCl)C(=O)NCCCl
dose: 30.0 mg/kg/injection, schedule: Q01DX001 (ip), vehicle: saline + alcohol
  T/C: 420 % of control
dose: 35.0 mg/kg/injection, schedule: Q01DX001 (ip), vehicle: saline + alcohol
  T/C: 247 % of control

## COc1cc(-c2ccc(Nc3ccccc3C(=O)O)c(OC)c2)ccc1Nc1ccccc1C(=O)O
[5]
  T/C: 112 % of control
[6]
  T/C: 104 % of control
[11]
  T/C: 100 % of control

## CSc1ncnc2nc[nH]c12
[4]
  T/C: 100 % of control
[5]
  T/C: 95 % of control
[6]
  T/C: 100 % of control
[11]
  T/C: 100 % of control
